Measurements from patent US12409181B2, “Treatment for aortic aneurysms” (THE REGENTS OF THE UNIVERSITY OF CALIFORNIA, priority 2019, dated 2025).
Entries after “also recorded” stand apart in the source; their conditions may differ.

Assays:
[1] = tested on: aortic rings; experiment: Arterial ring isometric tension measurements; design: species or system mice
Experimental: Arterial Ring Isometric Tension Measurements. Isometric tension in aortas was measured as previously described,^64 with minor modifications. Thoracic aortas were dissected in Krebs-Henseleit solution, cleaned of any adherent connective tissue, and cut into 1.5-2 mm segments. Rings with intact endothelium were mounted in a wire myograph over 40 μm wires, set at a resting tension of 0.5 g, and allowed to equilibrate at 37° C. for 45 min with intermittent washes every 15 min. After equilibration, aortas were treated with 40 mM K^+-solution. For vascular relaxation by acetylcholine (Sigma) or 8-(4-chlorophenylthio)cGMP (8-CPT-cGMP, BioLog), each aortic ring was pre-contracted to generate ˜0.15 g contraction by treatment with prostaglandin-F2α (PGF2α 2-8 μM, Thermo-Fisher). The degree of relaxation was calculated as a percent of PGF2α-induced contraction.

[2] = tested on: Prkg1^RQ/+ mice; experiment: Transverse aortic constriction (TAC) with N-acetylcysteine treatment; assay type: in vivo

How did the “relaxation of pre-contracted aortic rings in response to the agent” value ([1]; Prkg1^RQ/+ versus wild type aortas, rings pre-contracted with PGF2α) turn out when `Nc1nc2c(nc(Sc3ccc(Cl)cc3)n2[C@@H]2O[C@@H]3COP(=O)(O)O[C@H]3[C@H]2O)c(=O)[nH]1` [8-CPT-cGMP, 8-(4-chlorophenylthio)cGMP] was run?
Its value is “reduced in the mutant mice compared to wild type mice”.

Which “aortic pressure gradients after TAC surgery” value ([2]; NAC-treated mice) does the source give for `CC(=O)N[C@@H](CS)C(=O)O` [NAC, N-acetylcysteine] here?
Its value is “did not affect”.

What about the “pre-stenotic aortic dilation after TAC” value ([2]; NAC-treated mice) of the same compound?
The value was “did not affect”.

What about the “survival after TAC compared to untreated mice” value ([2]; NAC-treated mutant mice, 14 d after TAC) of the same compound?
Its value is “trend towards improved survival; also recorded: its effect on mortality was limited”.

And the “TAC-induced aortic pathological changes, including media thinning” value ([2]; Prkg1^RQ/+ mice, 1 mg/ml NAC in drinking water four weeks prior to and two weeks after TAC)?
Its value is “largely prevented; also recorded: effective in ameliorating aortic wall injury after TAC”.

What about the “oxidative stress after TAC” value ([2]; Prkg1^RQ/+ mice, NAC four weeks prior to and two weeks after TAC) of the same compound?
Its value is “reduced oxidative stress”.

What about the “effect in wild type mice after TAC” value ([2]; wild type mice, NAC four weeks prior to and two weeks after TAC) of the same compound?
The value was “no obvious effect”.

prostaglandin F2α was tested. Which “concentration required to pre-contract aortic rings, mutant mice” value ([1]; eight month-old Prkg1^RQ/+ mice, n=5 vessels) did it give?
The value was 2.27 ± 0.86 µM.

And the “concentration required to pre-contract aortic rings, wild type mice” value ([1]; eight month-old wild type mice, n=5 vessels)?
Its value is 2.15 ± 0.17 µM.
